Key:
[1] = tested on: Sewage sludge from a municipal sewage treatment plant; experiment: Anaerobic decomposition of dimethylsilanediol (DMSD) by sewage sludge with nitrate as electron acceptor, 1H-NMR; conditions: in 11 days
From the text: Sewage sludge from a municipal sewage treatment plant was taken off from running operations under oxygen-free conditions (N2-comprising sample vessels). To separate off interfering substrates, the cell mass was resuspended in 5-times the volume of an oxygen-free buffer (50 mmol/l of potassium phosphate pH 6.8) and centrifuged off. Oxygen-free solutions were produced by degassing the solution and purging with gaseous nitrogen.
The operation (resuspending/centrifuging) was repeated 3 times.
The washed oxygen-free cell mass was transferred in the absence of oxygen into shake flasks comprising culture medium (10 g of moist cell mass per 100 ml of medium). For control batches, the sewage sludge was autoclaved and inactivated thereby. […]
As electron acceptor, in addition, 5 g/l of KNO3 were added. […] Samples of the culture medium were taken off at regular intervals and analyzed immediately. […]
Analysis: In experiments using DMSD as a substrate, the change in concentration of DMSD in the aqueous phase was determined by means of proton magnetic resonance spectroscopy (^1H-NMR). […] Samples (0.9 ml) from the culture batches were taken off for this directly (via the stopper) from the vessel, admixed with standard (TSP in D2O; TSP=3-(trimethylsilyl)propionic acid-D4 sodium salt) and analyzed in the spectrometer. The DMSD signal can be quantified exactly via the known standard signal).

[2] = tested on: Sewage sludge; experiment: Anaerobic decomposition of octamethylcyclosiloxane (D4) by sewage sludge with nitrate as electron acceptor, gas chromatography; conditions: in 11 days
Description: The experiment was carried out in accordance with Example 1. In each case five flasks were made up with sewage sludge and five flasks with inactivated sewage sludge. As carbon source, octamethylcyclosiloxane (D4) was added to the medium. The siloxane is immiscible with water and first forms an oily film on the culture surface. With advancing culture time, the siloxane oil is emulsified in the culture. Relatively large cell aggregates form. Culture proceeds in accordance with Example 1 in the mineral medium specified there (SM1) comprising 5 g/l of KNO3 as electron acceptor. As sole carbon source, octamethylcyclosiloxane (D4) was added to the batches (1 ml per 100 ml of medium). After differing incubation times, the D4 content of the batches was determined. The entire batch was extracted 3 times with 50 ml of pentane, and to facilitate phase separation, it was centrifuged each time. The pentane phases were combined and D4 determined quantitatively directly by means of gas chromatography (Hewlett Packard instrument hp5890_li). The gas-chromatographic determination proceeded using a 30 m capillary (Hewlett Packard HP-1 No. 59026323) using nitrogen as carrier gas. Temperature program: 50° C. (5 min)−270° C. at 20° C./min. Detection was by means of FID at 300° C. The resultant signal peaks were quantified using corresponding standard solutions.

[3] = anaerobically incubated batch comprising sewage sludge
[4] = control batch (inactivated sewage sludge)

C[Si](C)(O)O [DMSD, Dimethylsilanediol]
decrease of the amount of DMSD [1, 3]: −39%
decrease of the amount of DMSD [1, 4]: −9%

C[Si]1(C)O[Si](C)(C)O[Si](C)(C)O[Si](C)(C)O1 [D4, Octamethylcyclosiloxane]
decrease in the amount of D4 [2, 3]: −16.3%
decrease in the amount of D4 [2, 4]: −6.2%

— patent US20070178577A1, “Method for effecting the anaerobic biological decomposition of organsiloxanes” (WACKER CHEMIE AG, priority 2004, published 2007)
